According to patent US20240118281A1, “ANTICANCER COMPOUNDS AND USES THEREOF” (University of Florida Research Foundation, Incorporated, priority 2021, published 2024):

Legend:
[1] = system: HER2+ BT474 xenograft tumors; experiment: BT474 xenograft tumor study, H&E staining of mammary fat pads/tumors; assay type: in vivo, mice; details: 20 mg/kg intraperitoneal, four consecutive days; vehicle tumors showed no necrosis
Method: Breast cancer liver metastasis was initiated in NOD-SCID-gamma (NSG) mice obtained from Jackson Laboratories (Bar Harbor, ME) by injecting 1×10^6 cancer cells into the #4 mammary fat pads as described previously (Wang M, et al. Cell Death Discovery 2019; 5: 153). Mice bearing HCI-001/LVM2 breast tumors were treated once daily for four consecutive days with 20 mg/kg tcyDTDO by oral gavage and livers were collected. Animals bearing HER2+ BT474 tumors were treated with the vehicle or 20 mg/kg dMtcyDTDO or dFtcyDTDO by intraperitoneal injection for four consecutive days. Tissue samples fixed in 4% paraformaldehyde/PBS and paraffin-embedded were sectioned and stained with hematoxylin and eosin (H&E) by the University of Florida Molecular Pathology Core (https://molecular.pathology.ufl.edu/).

DR5 [2] = experiment: Doxycycline-inducible DR5 (wild type and Cys mutants) expression, non-reducing immunoblot; assay type: cell-based; details: MDA-MB-468 stable cell lines, 24 h, FIG. 7E
Method: To assess protein disulfide bond-mediated oligomerization, cells were treated with DDAs for 24 h in 10% FBS-DMEM. Cells were subsequently scraped directly into the media and pelleted by centrifugation. Cells were extracted directly into boiling 2×-SDS-Sample Buffer containing 100 mM NEM and boiled for 10 min. Samples were sonicated, followed by centrifugation for 20 min at room temperature. Samples were subsequently analyzed by SDS-PAGE and immunoblot.

[3] = system: HER3, DR5, CHOP and XBP1s; experiment: Reducing immunoblot of DDA responses; assay type: cell-based; details: MDA-MB-468 cells
Description: The BT20, BT474, BT549, MCF7, MDA-MB-231, MDA-MB-436, MDA-MB-468, HCC1143, HCC1500, HCC1569, HCC1937, HCC1954, Hs578t, and T47D cells lines were purchased from American Type Culture Collection (ATCC) (Manassas, VA). The HCI-001 cell line was derived from an ER-/PR-/HER2- patient-derived xenograft originally isolated from a patient as described previously (DeRose Y S, et al. Nat Med 2011; 17: 1514-1520). The HCI-001/LVM2 model was derived from the HCI-001 cell line by performing two rounds of selection for liver metastasis, as described previously (Wang M, et al. Cell Death Discovery 2019; 5: 153). Cell lines were grown in Dulbecco's Modified Eagle's Medium (GE Healthcare Life Sciences, Logan, UT) containing 10% fetal bovine serum (10% FBS—DMEM) in a humidified incubator with 5% CO2 at 37° C. Cell lysates were prepared as described previously (Law B K, et al. Mol Cell Biol. 2002; 22: 8184-8198). […]

DR5 [4] = experiment: Surface biotinylation; assay type: cell-based; details: MDA-MB-468 cells, 2.5 μM, 24 h, amine- or thiol-reactive probes, FIG. 6D
Method: (§1) Cell surface proteins were labeled by incubation of cells with 1.6 mM Sulfo-NHS-SS-Biotin (Thermo Fisher Scientific, Waltham, MA) or 1.6 mM Biotin-dPEG3-Maleimide (MilliporeSigma, St. Louis, MO) in Phosphate-Buffered Saline (PBS), pH 8.0 for 30 minutes at 4° C. The cells were subsequently washed three times with PBS, and proteins were extracted in a buffer containing 1% Triton X-100 extraction buffer in the absence of reducing agents. Cell extracts were then incubated with Streptavidin-agarose beads (Thermo Fisher Scientific, Waltham, MA) for 2.5 h at 4° C. Following centrifugation, the supernatant containing non-biotinylated proteins (flow-through) was retained and boiled in 2×-SDS-Sample Buffer containing 1% 2-mercaptoethanol. Streptavidin-agarose beads bound to biotinylated proteins were washed four times with 0.1% Triton X-100 extraction buffer, followed by boiling in 2×-SDS-Sample Buffer containing 1% 2-mercaptoethanol. Samples were then analyzed by immunoblot or blotting with Streptavidin-Alkaline Phosphatase.

DR4 = experiment: Surface biotinylation; assay type: cell-based; details: MDA-MB-468 cells, 2.5 μM, 24 h, amine- or thiol-reactive probes, FIG. 6D
Method: as §1

ERAP1 = ERAP1 secretion in A431 skin cancer cells, immunoblot; assay type: cell-based; details: 5 μM, 24 h

## CO[C@H]1C[C@@H]2CS(=O)(=O)SC[C@H]2C[C@@H]1OC [dMtcyDTDO, dimethoxy-tcyDTDO]
[1]
  Tumors in mammary fat pads, H&E histology: tumors that had undergone coagulation necrosis
DR5 [2]
  Expression of C119S or C160S DR5 mutants: did not further increase expression of the C119S or C160S DR5 mutants
  Wild type DR5 expression on co-treatment with doxycycline: further increased DR5 expression
[3]; 24 h, reducing conditions, FIG. 9B
  Potency in induction of HER3 downregulation, DR5 upregulation and ERS (CHOP, XBP1s): more potent than tcyDTDO
[3]; FIG. 9C
  Onset of these responses (time-course): as early as four hours after treatment
DR5 [4]
  Cell surface levels of DR5: increased cell surface levels of DR4 and DR5
DR4
  Cell surface levels of DR4: increased cell surface levels of DR4 and DR5
ERAP1; FIG. 4F upper
  ERAP1 levels in the culture medium: dramatically increased
ERAP1; N=3, FIG. 4F lower
  ERAP1 secretion, statistical analysis: induced ERAP1 secretion in a statistically significant manner
